Measurements published in patent US12202821B2, “Herbicidal compounds” (SYNGENTA CROP PROTECTION AG, priority 2019, dated 2025).

Tests used:
Type in all cases: in vivo
[1] = test system: AMAPA; assay: Pre-emergence biological efficacy; conditions: 312 h, evaluated after 13 days, read-out: damage to plant (100=total damage to plant; 0=no damage to plant), AMAPA
Procedure: (§1) Pre-Emergence Biological Efficacy
(§2) Seeds of weeds and/or crops were sown in standard soil in pots. After cultivation for one day under controlled conditions in a glasshouse (at 24/16° C., day/night; 14 hours light; 65% humidity), the plants were sprayed with an aqueous spray solution derived from the formulation of the technical active ingredient in acetone/water (50:50) solution containing 0.5% Tween 20 (polyoxyethylene sorbitan monolaurate, CAS RN 9005-64-5) to give the desired final dose of test compound.
(§3) The test plants were then grown under controlled conditions in the glasshouse (at 24/16° C., day/night; 14 hours light; 65% humidity) and watered twice daily. After 13 days the test was evaluated (100=total damage to plant; 0=no damage to plant).

[2] = test system: ECHCG; assay: Pre-emergence biological efficacy; conditions: Echinochloa crus-galli, 312 h, evaluated after 13 days, read-out: damage to plant (100=total damage to plant; 0=no damage to plant), ECHCG
Procedure: as §1, §2, §3

[3] = test system: EPHHL; assay: Pre-emergence biological efficacy; conditions: 312 h, evaluated after 13 days, read-out: damage to plant (100=total damage to plant; 0=no damage to plant), EPHHL
Procedure: as §1, §2, §3

[4] = test system: IPOHE; assay: Pre-emergence biological efficacy; conditions: Ipomoea hederacea, 312 h, evaluated after 13 days, read-out: damage to plant (100=total damage to plant; 0=no damage to plant), IPOHE
Procedure: as §1, §2, §3

[5] = test system: LOLPE; assay: Pre-emergence biological efficacy; conditions: 312 h, evaluated after 13 days, read-out: damage to plant (100=total damage to plant; 0=no damage to plant), LOLPE
Procedure: as §1, §2, §3

[6] = test system: SETFA; assay: Pre-emergence biological efficacy; conditions: Setaria faberi, 312 h, evaluated after 13 days, read-out: damage to plant (100=total damage to plant; 0=no damage to plant), SETFA
Procedure: as §1, §2, §3

[7] = test system: AMAPA; assay: Post-emergence biological efficacy; conditions: 312 h, evaluated after 13 days, read-out: damage to plant (100=total damage to plant; 0=no damage to plant), AMAPA
Procedure: (§4) Post-Emergence Biological Efficacy
as §2, with “8 days” for “one day”
(§5) The test plants were then grown on under controlled conditions in a glasshouse (at 24/16° C., day/night; 14 hours light; 65% humidity) and watered twice daily. After 13 days the test was evaluated (100=total damage to plant; 0=no damage to plant).

[8] = test system: CHEAL; assay: Post-emergence biological efficacy; conditions: Chenopodium album, 312 h, evaluated after 13 days, read-out: damage to plant (100=total damage to plant; 0=no damage to plant), CHEAL
Procedure: as §4
as §2, with “8 days” for “one day”
as §5

[9] = test system: DIGSA; assay: Post-emergence biological efficacy; conditions: Digitaria sanguinalis, 312 h, evaluated after 13 days, read-out: damage to plant (100=total damage to plant; 0=no damage to plant), DIGSA
Procedure: as §4
as §2, with “8 days” for “one day”
as §5

[10] = test system: ECHCG; assay: Post-emergence biological efficacy; conditions: Echinochloa crus-galli, 312 h, evaluated after 13 days, read-out: damage to plant (100=total damage to plant; 0=no damage to plant), ECHCG
Procedure: as §4
as §2, with “8 days” for “one day”
as §5

[11] = test system: ELEIN; assay: Post-emergence biological efficacy; conditions: 312 h, evaluated after 13 days, read-out: damage to plant (100=total damage to plant; 0=no damage to plant), ELEIN
Procedure: as §4
as §2, with “8 days” for “one day”
as §5

[12] = test system: EPHHL; assay: Post-emergence biological efficacy; conditions: 312 h, evaluated after 13 days, read-out: damage to plant (100=total damage to plant; 0=no damage to plant), EPHHL
Procedure: as §4
as §2, with “8 days” for “one day”
as §5

[13] = test system: IPOHE; assay: Post-emergence biological efficacy; conditions: Ipomoea hederacea, 312 h, evaluated after 13 days, read-out: damage to plant (100=total damage to plant; 0=no damage to plant), IPOHE
Procedure: as §4
as §2, with “8 days” for “one day”
as §5

[14] = test system: LOLPE; assay: Post-emergence biological efficacy; conditions: 312 h, evaluated after 13 days, read-out: damage to plant (100=total damage to plant; 0=no damage to plant), LOLPE
Procedure: as §4
as §2, with “8 days” for “one day”
as §5

[15] = test system: SETFA; assay: Post-emergence biological efficacy; conditions: Setaria faberi, 312 h, evaluated after 13 days, read-out: damage to plant (100=total damage to plant; 0=no damage to plant), SETFA
Procedure: as §4
as §2, with “8 days” for “one day”
as §5

Structure (SMILES)	pest or weed control at 250 g/ha [1]	pest or weed control at 250 g/ha [2]	pest or weed control at 250 g/ha [3]	pest or weed control at 250 g/ha [4]	pest or weed control at 250 g/ha [5]	pest or weed control at 250 g/ha [6]	pest or weed control at 250 g/ha [7]	pest or weed control at 250 g/ha [8]	pest or weed control at 250 g/ha [9]	pest or weed control at 250 g/ha [10]	pest or weed control at 250 g/ha [11]	pest or weed control at 250 g/ha [12]	pest or weed control at 250 g/ha [13]	pest or weed control at 250 g/ha [14]	pest or weed control at 250 g/ha [15]
CC(=O)OCC1(C)CC(c2cc(-n3c(=O)n(C)c(=S)n(C)c3=O)c(F)cc2Cl)=NO1 (stereo not drawn) [Compound 51, [3-[2-Chloro-5-(3,5-dimethyl-2,6-dioxo-4-thioxo-1,3,5-triazinan-1-yl)-4-fluoro-phenyl]-5-methyl-4H-isoxazol-5-yl]methyl acetate]	100%	90%	100%	80%	90%	100%	100%	100%	100%	30%	80%	100%	90%	50%	100%
Cn1c(=S)n(C)c(=O)n(-c2cc(C3=NOC(C)(C(=O)O)C3)c(Cl)cc2Cl)c1=O (stereo not drawn) [Compound 56, 3-[2,4-dichloro-5-(3,5-dimethyl-2,6-dioxo-4-thioxo-1,3,5-triazinan-1-yl)-phenyl]-5-methyl-4H-isoxazole-5-carboxylic acid]	90%	0%	10%	30%	10%	10%	100%	90%	80%	90%	80%	80%	90%	30%	90%
CCOC(=O)C1(C)CC(c2cc(-n3c(=O)n(C)c(=S)n(C)c3=O)c(Cl)cc2Cl)=NO1 (stereo not drawn) [Compound 58, Ethyl 3-[2,4-dichloro-5-(3,5-dimethyl-2,6-dioxo-4-thioxo-1,3,5-triazinan-1-yl)phenyl]-5-methyl-4H-isoxazole-5-carboxylate]	90%	0%	0%	60%	0%	0%	90%	90%	80%	90%	90%	70%	100%	30%	90%
COC(=O)C1(C)ON=C(c2cc(-n3c(=O)n(C)c(=S)n(C)c3=O)c(F)cc2Cl)C1C (stereo not drawn) [Compound 145, Methyl 3-[2-chloro-5-(3,5-dimethyl-2,6-dioxo-4-thioxo-1,3,5-triazinan-1-yl)-4-fluoro-phenyl]-4,5-dimethyl-4H-isoxazole-5-carboxylate]	100%	90%	100%	100%	90%	100%	100%	100%	100%	100%	100%	100%	100%	100%	100%
Cn1c(=S)n(C)c(=O)n(-c2cc(C3=NOC(C)(C(=O)NS(C)(=O)=O)C3)c(Cl)cc2F)c1=O (stereo not drawn) [Compound 284, 3-[2-chloro-5-(3,5-dimethyl-2,6-dioxo-4-thioxo-1,3,5-triazinan-1-yl)-4-fluoro-phenyl]-5-methyl-N-methylsulfonyl-4H-isoxazole-5-carboxamide]	100%	30%	100%	100%	40%	70%	100%	100%	100%	100%	100%	90%	100%	80%	100%
CC(=O)C1(C)CC(c2cc(-n3c(=O)n(C)c(=S)n(C)c3=O)c(F)cc2Cl)=NO1 (stereo not drawn) [Compound 290, 3-[5-(5-Acetyl-5-methyl-4H-isoxazol-3-yl)-4-chloro-2-fluoro-phenyl]-1,5-dimethyl-6-thioxo-1,3,5-triazinane-2,4-dione]	100%	90%	100%	100%	90%	100%	100%	100%	100%	90%	100%	100%	100%	90%	90%
CO/N=C(\C)C1(C)CC(c2cc(-n3c(=O)n(C)c(=S)n(C)c3=O)c(F)cc2Cl)=NO1 (stereo not drawn) [Compound 293]	100%	90%	100%	50%	90%	100%	100%	100%	100%	30%	90%	100%	100%	60%	90%
CC(=NO)C1(C)CC(c2cc(-n3c(=O)n(C)c(=S)n(C)c3=O)c(F)cc2Cl)NO1 (stereo not drawn) [Compound 296, 3-[4-Chloro-2-fluoro-5-[5-[N-hydroxy-C-methyl-carbonimidoyl]-5-methyl-isoxazolidin-3-yl]phenyl]-1,5-dimethyl-6-thioxo-1,3,5-triazinane-2,4-dione]	100%	80%	90%	90%	80%	100%	100%	100%	70%	30%	90%	80%	90%	70%	80%
COC(=O)CO/N=C(\C)C1(C)CC(c2cc(-n3c(=O)n(C)c(=S)n(C)c3=O)c(F)cc2Cl)=NO1 (stereo not drawn) [Compound 299, methyl 2-[1-[3-[2-chloro-5-(3,5-dimethyl-2,6-dioxo-4-thioxo-1,3,5-triazinan-1-yl)-4-fluoro-phenyl]-5-methyl-4H-isoxazol-5-yl]ethylideneamino]oxyacetate]	100%	0%	90%	80%	60%	60%	100%	100%	80%	100%	90%	90%	90%	90%	100%
